# Legend:
# Assay in all cases: KINOMEscan competition binding
# Conditions in all cases: compound 0.5 µM
# RIPK2 (human) = RIPK2 (human) (UniProt O43353)
# PAK2 (human) = PAK2 (human) (UniProt Q13177)
# EPHA2 (human) = EPHA2 (human) (UniProt P29317)
# RIPK1 (human) = RIPK1 (human) (UniProt Q13546)
# CRK2 (P.falciparum) = CRK2 (P.falciparum) (UniProt P61075)
# CDK4 CCND3 (human) = CDK4 CCND3 (human) (UniProt P11802+P30281)
# NEK6 (human) = NEK6 (human) (UniProt Q9HC98)
# NEK4 (human) = NEK4 (human) (UniProt P51957)
# PRKCI (human) = PRKCI (human) (UniProt P41743)
# [1] = biological target: JAK3 JH1 catalytic (human) (UniProt P52333)
# [2] = tested on: FLT3 (human), P36888 [D835Y]
# MAPK1 (human) = MAPK1 (human) (UniProt P28482)
# Sequence of MAPK1 (human) (P28482 whole entry, looked up): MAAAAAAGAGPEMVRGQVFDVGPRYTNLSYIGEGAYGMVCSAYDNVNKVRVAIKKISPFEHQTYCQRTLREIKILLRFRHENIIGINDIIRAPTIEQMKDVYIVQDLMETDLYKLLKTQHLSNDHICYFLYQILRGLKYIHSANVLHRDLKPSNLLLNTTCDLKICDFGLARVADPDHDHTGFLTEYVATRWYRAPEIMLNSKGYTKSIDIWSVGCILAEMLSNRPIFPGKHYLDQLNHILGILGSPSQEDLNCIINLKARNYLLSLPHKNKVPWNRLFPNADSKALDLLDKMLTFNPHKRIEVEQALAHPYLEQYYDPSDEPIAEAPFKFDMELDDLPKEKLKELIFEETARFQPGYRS
# IKBKE (human) = IKBKE (human) (UniProt Q14164)
# PIK3C2B (human) = PIK3C2B (human) (UniProt O00750)
# Sequence of PIK3C2B (human) (O00750 whole entry, looked up): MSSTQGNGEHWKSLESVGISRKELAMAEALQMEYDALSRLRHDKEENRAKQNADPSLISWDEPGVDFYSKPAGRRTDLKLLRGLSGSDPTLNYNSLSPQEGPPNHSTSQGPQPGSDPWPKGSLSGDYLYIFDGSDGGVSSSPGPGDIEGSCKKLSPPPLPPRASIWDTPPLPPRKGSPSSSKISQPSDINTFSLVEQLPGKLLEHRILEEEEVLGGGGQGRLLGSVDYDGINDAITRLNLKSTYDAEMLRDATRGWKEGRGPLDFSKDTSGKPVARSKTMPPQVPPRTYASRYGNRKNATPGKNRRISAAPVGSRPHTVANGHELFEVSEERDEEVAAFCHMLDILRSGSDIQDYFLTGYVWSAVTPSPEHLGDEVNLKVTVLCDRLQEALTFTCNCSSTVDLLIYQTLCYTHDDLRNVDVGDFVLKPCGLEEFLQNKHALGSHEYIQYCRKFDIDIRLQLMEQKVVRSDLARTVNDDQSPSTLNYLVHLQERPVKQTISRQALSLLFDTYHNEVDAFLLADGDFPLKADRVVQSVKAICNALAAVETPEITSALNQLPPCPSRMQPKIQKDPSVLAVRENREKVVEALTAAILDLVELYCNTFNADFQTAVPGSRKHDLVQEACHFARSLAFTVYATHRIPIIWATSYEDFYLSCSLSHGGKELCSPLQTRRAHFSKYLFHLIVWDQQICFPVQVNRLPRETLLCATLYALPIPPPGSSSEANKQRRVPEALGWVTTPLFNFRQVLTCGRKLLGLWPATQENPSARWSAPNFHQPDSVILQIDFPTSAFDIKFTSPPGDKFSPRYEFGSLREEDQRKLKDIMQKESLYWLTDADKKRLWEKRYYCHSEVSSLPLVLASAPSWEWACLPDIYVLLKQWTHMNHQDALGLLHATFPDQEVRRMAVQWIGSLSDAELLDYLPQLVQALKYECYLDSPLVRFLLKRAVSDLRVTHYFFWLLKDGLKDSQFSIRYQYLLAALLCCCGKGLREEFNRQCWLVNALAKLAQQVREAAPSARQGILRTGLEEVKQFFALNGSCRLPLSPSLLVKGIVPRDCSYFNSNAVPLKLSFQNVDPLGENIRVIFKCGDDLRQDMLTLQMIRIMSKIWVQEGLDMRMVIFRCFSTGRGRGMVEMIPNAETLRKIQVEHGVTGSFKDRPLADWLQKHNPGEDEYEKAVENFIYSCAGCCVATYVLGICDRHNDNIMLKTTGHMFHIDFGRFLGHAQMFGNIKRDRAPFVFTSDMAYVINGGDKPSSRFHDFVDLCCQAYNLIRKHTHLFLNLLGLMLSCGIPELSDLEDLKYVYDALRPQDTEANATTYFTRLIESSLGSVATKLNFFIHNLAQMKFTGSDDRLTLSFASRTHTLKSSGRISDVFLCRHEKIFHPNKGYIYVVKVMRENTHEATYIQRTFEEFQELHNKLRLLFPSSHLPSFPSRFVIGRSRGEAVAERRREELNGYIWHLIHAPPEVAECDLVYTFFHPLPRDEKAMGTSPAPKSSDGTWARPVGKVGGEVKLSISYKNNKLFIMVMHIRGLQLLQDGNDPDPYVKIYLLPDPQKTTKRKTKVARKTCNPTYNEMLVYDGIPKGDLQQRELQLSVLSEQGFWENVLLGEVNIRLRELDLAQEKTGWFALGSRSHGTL
# CaMK1 (human) = CaMK1 (human) (UniProt Q14012)
# MET (human) = MET (human) (UniProt P08581)
# STK36 (human) = STK36 (human) (UniProt Q9NRP7)
# Sequence of STK36 (human) (Q9NRP7 whole entry, looked up): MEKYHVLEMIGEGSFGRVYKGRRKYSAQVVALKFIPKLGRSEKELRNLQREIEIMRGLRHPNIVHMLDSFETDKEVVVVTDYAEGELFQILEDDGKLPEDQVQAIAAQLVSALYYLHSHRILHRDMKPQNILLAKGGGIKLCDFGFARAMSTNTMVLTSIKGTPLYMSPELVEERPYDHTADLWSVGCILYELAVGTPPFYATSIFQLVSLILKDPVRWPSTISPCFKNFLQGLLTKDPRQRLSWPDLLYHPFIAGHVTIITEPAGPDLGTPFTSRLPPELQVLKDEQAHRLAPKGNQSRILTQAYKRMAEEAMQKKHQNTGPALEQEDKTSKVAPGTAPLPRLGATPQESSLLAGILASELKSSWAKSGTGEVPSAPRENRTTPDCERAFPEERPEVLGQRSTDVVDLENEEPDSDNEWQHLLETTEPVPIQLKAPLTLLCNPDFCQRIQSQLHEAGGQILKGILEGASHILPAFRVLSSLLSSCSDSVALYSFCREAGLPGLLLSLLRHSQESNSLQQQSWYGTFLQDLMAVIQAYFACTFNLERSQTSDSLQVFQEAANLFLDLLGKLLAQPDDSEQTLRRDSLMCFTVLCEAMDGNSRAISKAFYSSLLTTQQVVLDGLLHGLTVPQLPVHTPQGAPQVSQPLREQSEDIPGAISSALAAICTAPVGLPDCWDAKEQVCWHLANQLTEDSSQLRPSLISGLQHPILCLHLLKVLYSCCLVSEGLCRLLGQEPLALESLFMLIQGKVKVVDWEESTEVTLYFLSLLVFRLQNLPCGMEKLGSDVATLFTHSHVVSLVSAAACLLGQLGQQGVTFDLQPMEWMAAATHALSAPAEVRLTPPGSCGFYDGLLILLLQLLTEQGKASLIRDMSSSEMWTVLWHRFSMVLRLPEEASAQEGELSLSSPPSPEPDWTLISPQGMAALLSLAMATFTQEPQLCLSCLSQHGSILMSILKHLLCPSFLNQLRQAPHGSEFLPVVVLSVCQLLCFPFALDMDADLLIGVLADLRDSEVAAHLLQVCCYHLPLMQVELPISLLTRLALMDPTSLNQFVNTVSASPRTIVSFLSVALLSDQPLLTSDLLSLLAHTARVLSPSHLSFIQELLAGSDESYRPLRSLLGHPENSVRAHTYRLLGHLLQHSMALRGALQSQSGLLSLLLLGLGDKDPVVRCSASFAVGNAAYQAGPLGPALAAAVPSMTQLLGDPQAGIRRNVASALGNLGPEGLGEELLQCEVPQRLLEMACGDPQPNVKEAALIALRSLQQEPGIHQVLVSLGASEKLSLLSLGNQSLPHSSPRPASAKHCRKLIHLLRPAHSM
# MAPK15 (human) = MAPK15 (human) (UniProt Q8TD08)
# MAPK3 (human) = MAPK3 (human) (UniProt P27361)
# ERN1 (human) = ERN1 (human) (UniProt O75460)
# CSNK1G3 (human) = CSNK1G3 (human) (UniProt Q9Y6M4)
# EPHA6 (human) = EPHA6 (human) (UniProt Q9UF33)
# MAP3K4 (human) = MAP3K4 (human) (UniProt Q9Y6R4)
# CDK14 (human) = CDK14 (human) (UniProt O94921)
# [3] = tested on: FLT3 (human), P36888 [K663Q]
# STK32C (human) = STK32C (human) (UniProt Q86UX6)
# Sequence of STK32C (human) (Q86UX6 whole entry, looked up): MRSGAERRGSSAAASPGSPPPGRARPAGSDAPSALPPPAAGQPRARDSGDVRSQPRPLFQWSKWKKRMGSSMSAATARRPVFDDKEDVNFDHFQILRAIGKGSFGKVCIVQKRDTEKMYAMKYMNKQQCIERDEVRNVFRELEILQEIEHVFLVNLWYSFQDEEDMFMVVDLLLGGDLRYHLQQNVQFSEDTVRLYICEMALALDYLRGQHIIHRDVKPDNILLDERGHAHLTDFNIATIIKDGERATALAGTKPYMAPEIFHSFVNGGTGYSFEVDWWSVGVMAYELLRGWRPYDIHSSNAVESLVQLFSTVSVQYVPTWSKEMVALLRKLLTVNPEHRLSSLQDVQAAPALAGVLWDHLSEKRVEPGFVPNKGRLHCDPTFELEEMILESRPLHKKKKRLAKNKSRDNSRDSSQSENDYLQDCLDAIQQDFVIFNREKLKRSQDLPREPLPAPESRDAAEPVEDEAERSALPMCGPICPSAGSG
# PKMYT1 (human) = PKMYT1 (human) (UniProt Q99640)
# CHEK2 (human) = CHEK2 (human) (UniProt O96017)
# PKN1 (human) = PKN1 (human) (UniProt Q16512)
# CDK5 (human) = CDK5 (human) (UniProt Q00535)
# IRAK3 (human) = IRAK3 (human) (UniProt Q9Y616)
# CPK1 (P.falciparum) = tested on: CPK1 (P.falciparum)
# RIPK4 (human) = RIPK4 (human) (UniProt P57078)
# ACVRL1 (human) = ACVRL1 (human) (UniProt P37023)
# ACVR1 (human) = ACVR1 (human) (UniProt Q04771)
# Sequence of ACVR1 (human) (Q04771 whole entry, looked up): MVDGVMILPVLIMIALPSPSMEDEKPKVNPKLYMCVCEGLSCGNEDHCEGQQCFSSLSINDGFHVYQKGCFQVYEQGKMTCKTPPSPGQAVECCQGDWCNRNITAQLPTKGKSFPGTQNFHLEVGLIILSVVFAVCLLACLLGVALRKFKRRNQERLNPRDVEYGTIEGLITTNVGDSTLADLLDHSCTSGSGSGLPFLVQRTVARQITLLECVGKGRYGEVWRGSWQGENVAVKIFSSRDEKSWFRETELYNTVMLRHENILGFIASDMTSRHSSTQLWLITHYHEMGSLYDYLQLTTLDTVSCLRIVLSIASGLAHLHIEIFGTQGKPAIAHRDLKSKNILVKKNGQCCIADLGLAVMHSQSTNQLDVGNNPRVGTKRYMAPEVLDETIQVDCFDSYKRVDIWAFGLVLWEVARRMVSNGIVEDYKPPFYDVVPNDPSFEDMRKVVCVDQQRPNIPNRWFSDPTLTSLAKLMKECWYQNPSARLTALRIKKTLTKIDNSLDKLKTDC
# MUSK (human) = MUSK (human) (UniProt O15146)
# MARK2 (human) = MARK2 (human) (UniProt Q7KZI7)
# FGFR3 (human) = FGFR3 (human) (UniProt P22607)
# DAPK3 (human) = DAPK3 (human) (UniProt O43293)
# RPS6KA4 KD2 (human) = RPS6KA4 KD2 (human) (UniProt O75676)
# PAK7 (human) = PAK7 (human) (UniProt Q9P286)
# NEK1 (human) = NEK1 (human) (UniProt Q96PY6)
# Sequence of RIPK2 (human) (O43353 whole entry, looked up): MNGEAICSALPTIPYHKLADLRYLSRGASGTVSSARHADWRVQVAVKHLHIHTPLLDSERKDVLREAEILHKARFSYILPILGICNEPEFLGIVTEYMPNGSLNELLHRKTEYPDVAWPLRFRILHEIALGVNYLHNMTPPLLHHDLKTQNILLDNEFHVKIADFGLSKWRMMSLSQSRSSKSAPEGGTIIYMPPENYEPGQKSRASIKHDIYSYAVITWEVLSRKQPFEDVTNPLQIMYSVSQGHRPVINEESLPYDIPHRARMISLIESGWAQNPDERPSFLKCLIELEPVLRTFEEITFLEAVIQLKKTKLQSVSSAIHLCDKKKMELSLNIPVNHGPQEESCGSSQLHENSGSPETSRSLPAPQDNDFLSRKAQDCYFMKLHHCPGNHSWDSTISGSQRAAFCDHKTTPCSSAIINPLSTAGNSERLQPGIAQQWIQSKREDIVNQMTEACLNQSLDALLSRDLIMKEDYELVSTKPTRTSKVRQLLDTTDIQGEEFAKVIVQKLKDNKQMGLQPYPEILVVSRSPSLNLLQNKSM
structure (smiles),measurement,setting,value
Cn1c2ccccc2c2c3c(c4c5ccccc5n(CCC#N)c4c21)CNC3=O,"kinase still bound, per cent of control",RIPK2 (human),100%
same,"kinase still bound, per cent of control",PAK2 (human),51%
same,"kinase still bound, per cent of control",EPHA2 (human),87%
same,"kinase still bound, per cent of control",RIPK1 (human),100%
same,"kinase still bound, per cent of control",CRK2 (P.falciparum),85%
same,"kinase still bound, per cent of control",CDK4 CCND3 (human),42%
same,"kinase still bound, per cent of control",NEK6 (human),100%
same,"kinase still bound, per cent of control",NEK4 (human),100%
same,"kinase still bound, per cent of control",PRKCI (human),86%
same,"kinase still bound, per cent of control",[1],0%
same,"kinase still bound, per cent of control",[2],0%
same,"kinase still bound, per cent of control",MAPK1 (human),100%
same,"kinase still bound, per cent of control",IKBKE (human),99%
same,"kinase still bound, per cent of control",PIK3C2B (human),100%
same,"kinase still bound, per cent of control",CaMK1 (human),76%
same,"kinase still bound, per cent of control",MET (human),88%
same,"kinase still bound, per cent of control",STK36 (human),100%
same,"kinase still bound, per cent of control",MAPK15 (human),0.45%
same,"kinase still bound, per cent of control",MAPK3 (human),96%
same,"kinase still bound, per cent of control",ERN1 (human),43%
same,"kinase still bound, per cent of control",CSNK1G3 (human),84%
same,"kinase still bound, per cent of control",EPHA6 (human),86%
same,"kinase still bound, per cent of control",MAP3K4 (human),99%
same,"kinase still bound, per cent of control",CDK14 (human),100%
same,"kinase still bound, per cent of control",[3],0.95%
same,"kinase still bound, per cent of control",STK32C (human),100%
same,"kinase still bound, per cent of control",PKMYT1 (human),100%
same,"kinase still bound, per cent of control",CHEK2 (human),31%
same,"kinase still bound, per cent of control",PKN1 (human),9.4%
same,"kinase still bound, per cent of control",CDK5 (human),61%
same,"kinase still bound, per cent of control",IRAK3 (human),12%
same,"kinase still bound, per cent of control",CPK1 (P.falciparum),35%
same,"kinase still bound, per cent of control",RIPK4 (human),5.2%
same,"kinase still bound, per cent of control",ACVRL1 (human),100%
same,"kinase still bound, per cent of control",ACVR1 (human),21%
same,"kinase still bound, per cent of control",MUSK (human),100%
same,"kinase still bound, per cent of control",MARK2 (human),9.8%
same,"kinase still bound, per cent of control",FGFR3 (human),97%
same,"kinase still bound, per cent of control",DAPK3 (human),75%
same,"kinase still bound, per cent of control",RPS6KA4 KD2 (human),100%
same,"kinase still bound, per cent of control",PAK7 (human),3.4%
same,"kinase still bound, per cent of control",NEK1 (human),99%
